Experimental data reported in patent US20080027088A1, “Imidazole-Based Hmg-Coa Reductase Inhibitors” (Warner-Lambert Company, LLC, priority 2004, published 2008).
Marks after values point to notes of the source that are not given here.

Legend:
[1] = test system: ApoE knockout mice; test: Plasma sphingomyelin and phosphatidylcholine by HPLC, 4 weeks (Table 2); format: in vivo; conditions: for PC in plasma / SM in plasma / SM; PC molar ratio: diet admix 4 weeks, n = 10
Protocol: Animal experiments—Male C57BI/6J and ApoE KO mice on C57BI/6J background were obtained from the Jackson Laboratory (Bar Harbor, Me.) or Taconic (Germantown, N.Y.) (Plaque formation in ApoE KO mice is lipid-driven (A. S. Plump et al., Cell. 1992;71 (2):343-53)). Myriocin was mixed with Western diet containing 0.21% cholesterol and 21% fat. 8-12-week-old mice received 0.3 mg myriocin/kg/day for 12 weeks (Table 1). […] Control groups consisted of ApoE KO mice fed normal chow or Western diet without myriocin, and normal chow-fed C57BI/6J mice. Body weight and chow feeding was measured every week to examine the food consumption. For the femoral artery cuff model, 8-10 week-old male ApoE KO mice were anethetized and the right femoral artery was dissected from its surroundings. A nonconstrictive polyethylene cuff (Portex, 0.40-mm inner diameter, 0.80-mm outer diameter, and 1.5-mm length) was placed looselyaround the right femoral artery.
The liquid chromatography system was composed of twin Shimadzu (Columbia, Md.) LC-10ADvp HPLC pumps with a SCL-10Avp controller (flow rate 0.2 mL/minute), and a LEAP Technologies (Carrboro, N.C.) CTC PAL autosampler. For the quantitative method, the analytical column was a Phenomenex (Torrance, Calif.) Polar-RP (2.0×150 mm, 4 μm) with a MetaChem (Torrance, Calif.) MetaGuard Polaris C8 2.0 mm direct connect (5 μm) guard column. Mobile phase A consisted of water/acetonitrile/formic acid (60/40/0.1) and mobile phase B was propanol. The HPLC pumps were programmed with a gradient for each injection to deliver 98% mobile phase A (0-1 minute), 30% mobile phase A (1-2 minutes), 30% mobile phase A (2-4 minutes), and 98% mobile phase A (4-4.5 minutes). A sample volume of 2 μL was injected into the LC/MS/MS system. Final chromatographic retention times for sphingomyelin, sphinganine, psychosine (internal standard) and ceramide were 4.84 minutes, 5.43 minutes, 4.92 minutes and 5.31 , minutes, respectively. Lipid extracts were analyzed by HPLC and evaporative light scattering detector to determine plasma sphingomyelin and phosphatidylcholine (PC) levels (R. Homan and M.K. Anderson, J. Chromatogr. B. Biomed. Sci. Appl. 1998;708:21-6).
To investigate whether myriocin was effective in lowering sphingomyelin biosynthesis, various concentrations of myriocin were administered to ApoE KO mice for 4 weeks and plasma SM levels were examined. […] At the highest dose of myriocin (1 mg/kg/day), plasma sphingomyelin levels were reduced by 70% when compared with no-myriocin control. Thus, myriocin in a diet admix was effective in inhibiting sphingomyelin biosynthesis and lowering plasma sphingomyelin levels. Since SM levels relative to phospholipids has been regarded as a risk factor for coronary artery disease, plasma PC levels were determined by HPLC analysis. Although there were significant changes in plasma SM levels, plasma PC levels were not changed to the same extent by myriocin. Consequently, SM/PC molar ratio was lowered by myriocin in a dose-dependent manner (Table 2).

[2] = test system: LCB1 and LCB2 mRNA; test: SPT gene expression (LCB1, LCB2 mRNA) in liver by RT-PCR; format: in vivo; conditions: 0.3 mg/kg/day diet admix, 12 weeks, Western diet-fed ApoE KO mice
Protocol: SPT expression and activity—Total RNA was isolated from liver and aorta using Trizol (Invitrogen, Calif.). LCB1 and LCB2 mRNA levels were measured by real-time (RT) polymerase chain reaction (PCR) on ABI Prism 7900HT Sequence Detection System (Applied Biosystems, Foster City, Calif.). The following primers and probe sets were utilized: LCB1, forward primer, 5′-CCGCTCCTTCGTGGTTGA-3′: reverse primer, 5′-[…]-3′: probe, 5′FAM-[…]-3′; LCB2, forward primer, 5′-[…]-3′, reverse primer, 5′-CCTCAGGATCCAGGCCM-3′, probe, 5′FAM-[…]-3′. The optimum number of cycles was set for each gene product with uniform amplification. Each mRNA level was expressed as a ratio to 18s ribosomal RND or as a ratio to GAPDH RNA.
FIGS. 1-A, 1-B, 1-C, 1-D and 1-E. SPT gene expression and enzyme activity. Mice were treated with 0.3 mg/kg/day myriocin for 12 weeks by mixing with Western diet chow. Liver was isolated and total mRNA and cell-free homogenate were prepared. SPT mRNA expression was quantified by quantitative RT-PCR. Expression was described as a ratio of LCB1 (A) or LCB2 (B) mRNA to 18s RNA or to rodent GAPDH RNA (n=5, P>0.05). SPT activity of cell-free homogenate (C) was measured with ^14C-labeled Serine and palmitoyl-coenzyme A as substrates and analyzed by TLC. Relative amounts of 3-ketosphinganine were determined by densitometry scanning. The values reported are mean±SEM (n=3, *P<0.05).

Structure (SMILES): CCCCCCC(=O)CCCCCC/C=C/C[C@@H](O)[C@H](O)[C@@](N)(CO)C(=O)O [myriocin]
- plasma sphingomyelin levels reduced (HPLC) ([1]; 1 mg/kg/day, 4 weeks, vs no-myriocin control): 70%
- PC in plasma ([1]; WD + 0.1 mg myr): 2.763 ± 0.195 nmol/mL
- SM in plasma ([1]; WD + 0.1 mg myr): 0.379 ± 0.035 nmol/mL
- SM; PC molar ratio ([1]; WD + 0.1 mg myr): 0.137 ± 0.005^b
- PC in plasma ([1]; WD + 0.3 mg myr): 1.999 ± 0.085 nmol/mL
- SM in plasma ([1]; WD + 0.3 mg myr): 0.243 ± 0.032 nmol/mL
- SM; PC molar ratio ([1]; WD + 0.3 mg myr): 0.122 ± 0.013^b
- PC in plasma ([1]; WD + 1 mg myr): 2.044 ± 0.146 nmol/mL
- SM in plasma ([1]; WD + 1 mg myr): 0.175 ± 0.013 nmol/mL
- SM; PC molar ratio ([1]; WD + 1 mg myr): 0.086 ± 0.008^b
- effect on expression of LCB1 and LCB2 mRNA in the liver [2]: no effect
